In publication PMC10279755 (Nature Communications, 2023):
Read-outs that look alike come from different tables or passages of the source. Ends that are not written are not given here.

How the values were obtained:
aminopeptidase N (APN) = test: In vitro aminopeptidase N (APN) activity assay with Ala-MCA in HUVECs; type: cell-based, human; details: 100 μM Ala-MCA in PBS, curcumin 50 µM, 24 h, fluorescence λex 360 nm, λem 460 nm
Experimental: HUVEC cells were plated in a 96-well plate at a density of 5000 cells per well in 200 μL complete ECGM V2 media per well. After culturing for 24 h, cells were washed with 1X PBS two times. […] The release of fluorescent product 7-amino-4-methylcoumarin in the media was monitored on the plate reader (BioTek Cytation3 imaging reader) with λex of 360 nm and peak λem of 460 nm.

HUVECs [1] = system: HUVECs; design: method as in earlier work; details: curcumin up to 100 µM, up to 72 h; ref Kumar et al. 1998; Do et al. 2022; Ouyang et al. 2019; Hosseini et al. 2019; Yuan et al. 2022; cited from earlier work
Text: page 17: Reviewer #3 Specific Comment 1. I have one very major concern that should be experimentally addressed.

[2] = system: HUVECs (cell surface laminin receptor integrin); test: In vitro study of biological function using fluorescent probe: rhodamine B-labeled peptide attachment to HUVECs (CTCF); type: cell-based, human
Experimental: HUVECs were plated at a density of 0.1 million cells per well in a 24-well plate with 0.5 mL complete ECGM per well and cultured for 24 h, followed by washing with 1× PBS three times and the addition of 950 μL serum-free ECGM per well. Rhodamine B labeled peptide solution (50 μL in serum-free ECGM, 1 mM) was mixed with 0.05% trypsin (5 μL). The mixed solution was then added to each well for a total volume of 1005 μL. Cells were incubated with the mixed solution for various time periods. At different time points (1 h up to 30 h), the media was removed, and cells were washed with PBS three times. Fresh PBS (500 μL) was added to the wells, and the plate was visualized by bright-field and fluorescence microscopy (Nikon Eclipse Ti−U) with TRITC filter set. The magnification was 20×. Corrected total cell fluorescence (CTCF) intensity was estimated using the equation CTCF = integrated density − (area of selected cell) × (mean fluorescence of background). A rectangular drawing/selection tool in ImageJ was used to select a desired region with fluorescence, and its integrated density and area were measured. […] Cell counts were 30 for each group from three separate wells.
The corrected total cell fluorescence (CTCF) was calculated as follows:1 2 CTCF = integrated density – (area of selected cell × mean fluorescence of background readings)
Supplementary Table 1. Statistics Data of CTCF at each timepoint measured from fluorescence images of Ac-E5G2KSYIGR-KRB with trypsin, and control peptides mentioned […]
Comparison Mean q P value […]
Group comparisons are indicated as determined by a one -way analysis of variance (ANOVA) with a Student−Newman−Keuls comparisons post hoc test. *** indicates p < 0.001, ** indicates p < 0.01, * indicates p < 0.05, and ns indicates no significance among indicated

trypsin [3] = test: trypsin (0.08 wt% total) in PBS buffer; details: 37 °C
trypsin [4] = molecular target: T1, trypsin (Sus scrofa, UniProt P00761); test: Trypsin cleavage of switch peptide followed by MALDI-TOF MS; type: biochemical
T1 construct: purchased VWR (Radnor, PA, USA)
T1 sequence (P00761 9-231): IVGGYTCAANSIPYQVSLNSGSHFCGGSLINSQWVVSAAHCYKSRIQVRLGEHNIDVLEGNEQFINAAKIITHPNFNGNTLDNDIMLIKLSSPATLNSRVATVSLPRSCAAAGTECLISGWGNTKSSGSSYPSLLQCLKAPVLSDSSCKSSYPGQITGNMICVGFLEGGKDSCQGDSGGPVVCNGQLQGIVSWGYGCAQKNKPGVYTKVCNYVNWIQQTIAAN
Experimental: We followed the kinetics of Lys residue cleavage by trypsin and functional peptide formation using MALDI-TOF mass spectrometry (MS). We tracked disappearance of the switch peptide peak and evolution of the intermediate or functional peptide peak (SYIGR or Ac-YIGSR; both have the same exact mass) after treatment with trypsin. […] After 3 h, the intensity of both signals was similar, and after 24 h the switch peptide signal disappeared completely, while the intermediate/functional peptide peak became dominant, indicating near-complete conversion.
Addition of the KRB unit created a new potential cleavage site for trypsin at the C-terminal side of the Arg residue (i.e., the R–KRB peptide bond). To ensure the desired response still occurred, i.e., cleavage of the K–SYIG peptide bond to remove the N-terminal Lys residue, we designed an experiment to follow the transformation of KSYIGRK as a representative peptide that contains two potential cleavage points, the desired K–SYIG peptide bond and the undesired R–K peptide bond. We treated this peptide with trypsin and followed bond cleavage at these two sites using MALDI-TOF MS. […] However, we envisioned that this undesired cleavage would not be a problem in cell studies because it would simply generate a KRB species that would be removed in washing steps.
Switch peptide solution (100 μL, 5 mg/mL in PBS) was mixed with 20 μL of a trypsin solution (0.25%) in a vial and placed at 37 °C in an incubator. Aliquots (2 μL) from each reaction solution were withdrawn at specific times, and trypsin was deactivated immediately by the addition of acetic acid (0.3 μL, 1 M in distilled water). Samples (0.8 μL) were then mixed with a matrix solution (0.8 μL, 0.02 M α-cyano-4-hydroxycinnamic acid dissolved in acetonitrile/methanol/water (1:1:1) with 0.1% formic acid) and deposited on a MALDI plate (Opti-TOF 384 Well, 123 × 81 mm). Samples were analyzed using a matrix-assisted laser desorption ionization−tandem time-of-flight mass spectrometer (4800 MALDI TOF/TOF, AB Sciex).

HUVECs [5] = test: Cell viability assay (CCK-8); type: cell-based, human
Experimental: HUVECs (ATCC catalog number PCS-100-010) were plated in a 96-well plate at a density of 5000 cells per well in 200 μL complete ECGM per well. After culturing for 24 h, the media was discarded and the cells were washed with 1X PBS three times before […] serum-containing ECGM media was added. Next, varying amounts of peptide stock solution (4 mM in PBS) were diluted to […] with PBS and added to the wells to make the final peptide concentrations ranging from 10 to 200 µM. After incubation for 24 h, cells were washed three times with PBS and then treated with serum-free ECGM media (100 μL). Next, 10 μL cell counting kit 8 solution (CCK-8, Dojindo, Rockville, MD) was added to each well. After incubation for another 3 h to allow for development of the CCK8 dye, absorbance was recorded at 450 and 750 nm using a BioTek Synergy Mx plate reader (BioTek, Winooski, VT). Worked-up data (absorbance at 750 nm subtracted from absorbance at 450 nm) were graphed using GraphPad InStat, version 3 (GraphPad Software, Inc., San Diego, CA). Mean values are reported together with the standard deviation (SD) representing the combination of 3 independent experimental runs with five replicates per experiment.

CD29 (integrin β1) = test: Immunofluorescence co-localization with CD29; type: cell-based, human; details: HUVECs, 50 µM peptide, 24 h, fixed, confocal microscopy, done once
Experimental: HUVEC cells were seeded in an 8-chamber glass slide (Lab-Tek Chamber Slide) at a density of 30,000 cells per well in 0.4 mL complete ECGM media per well. After culturing for 24 h, cells were washed twice with 1× PBS. The cells were then incubated with 395 μL of serum-free ECGM media […] in the following groups: Blank (5 μL PBS), and 4 mM Ac-YIGSR-KRB (5 μL in PBS, final concentration 50 µM). After incubation for 24 h, the media was removed, and cells were washed with PBS three times. Cultured cells were then fixed in 10% formalin for 5 min, then washed three times with PBS for 5 min each. Slides were blocked for 1 h with 2% cold water fish skin gelatin (Sigma, Inc., St. Louis, MO, USA) and 0.2% triton-X100 solution. Slides were then incubated in conjugated primary antibody diluted in blocking solution overnight at room temperature, then washed with PBS five times for 10 min each. The antibody used was FITC Armenian hamster anti-mouse/rat CD29 at a 1:50 dilution (Biolegend, San Diego, CA, USA; Catalog number 102205, clone HMbeta1-1), validated by the manufacturer by immunofluorescent staining with flow cytometric analysis. Finally, slides were mounted with DAPI Fluoromount-G (SouthernBiotech, Birmingham, AL, USA). Images were then obtained using a Nikon A1 Confocal Microscope with NIS Elements Imaging Software (Melville, New York, USA).

trypsin [6] = test: trypsin solution (0.25%) mixed with switch peptide solution in PBS; details: 37 °C, up to 24 h
[7] = switch peptide 5 mg/mL in PBS (100 μL) + 20 μL 0.25% trypsin, 37 °C

**Q.** What does the source list for `COc1cc(/C=C/C(=O)CC(=O)/C=C/c2ccc(O)c(OC)c2)ccc1O` [curcumin]?
**A.** APN activity remaining with inhibitor (aminopeptidase N (APN)): ~ 25%; viability of HUVECs (HUVECs [1]): > 80%

**Q.** With “Ac-E5G2KSYIGRKRB (lariat or depsi) [Ac-E5G2KSYIGR-KRB, switch peptide labeled with the fluorescent probe rhodamine B]” as the molecule, how does the “fluorescence signal on HUVECs after washing (in words)” value (shortened to “fluorescence signal on HUVECs”) ([2]; with trypsin, 1 h) read?
**A.** Its value is “negligible fluorescent signal”.

**Q.** And the “fluorescence signal on HUVECs” value ([2]; with trypsin, 30 h)?
**A.** The value was “strong signal”.

**Q.** What about the “fluorescence signal on HUVECs” value ([2]; without trypsin, 30 h) of the same molecule?
**A.** Its value is “no fluorescence signal”.

**Q.** Which cleaved bond (trypsin [3]) does the source give for Ac-KSYIGRK here?
**A.** Its cleaved bond is “K-S and R-K”.

**Q.** Which “trypsin cleavage at K–SYIG versus R–K peptide bond” value (trypsin [4]; trypsin, cleavage at either site but not both simultaneously) does the source give for “Ac-KSYIGRK (also: lariat or depsi (positions not given here))” here?
**A.** Its value is “approximately the same rate”.

**Q.** With “Ac-KYIGR-KRB [fluorescence labeled peptide with YIG on the side chain, cannot undergo a switch; negative control]” as the molecule, how does the “fluorescence signal on HUVECs” value ([2]; with trypsin, 30 h) read?
**A.** The value was “no fluorescence”.

**Q.** What about the “fluorescence signal on HUVECs” value ([2]; without trypsin, 30 h) of the same molecule?
**A.** Its value is “no fluorescence”.

**Q.** Which “cytotoxicity in cell viability studies” value (HUVECs [5]; HUVECs, CCK-8, peptide up to 200 µM, 24 h) does the source give for “Ac-YIGSR [functional cell-adhesive pentapeptide derived from the ECM protein laminin, reference compound]” here?
**A.** Its value is “no cytotoxicity”.

**Q.** Which results are given for “Ac-YIGSR-KRB [rhodamine B-labeled functional peptide, positive control]”?
**A.** fluorescence signal on HUVECs after washing (in words) ([2]; without trypsin, 30 h): strong fluorescence; co-localization of rhodamine B-labeled peptide with anti-CD29-FITC stain (CD29 (integrin β1)): colocalized with integrin β1

**Q.** Which results are given for “KSYIGR (also: lariat or depsi (positions not given here)) [non-functional depsipeptide; SYIG = Ser residue esterified with Ac-YIG; trypsin removes N-terminal Lys]”?
**A.** time after which switch peptide signal (m/z = 764) started to decrease (trypsin [4]; [7]): 1 h; time at which intensity of switch peptide and intermediate/functional peptide signals was similar (trypsin [4]; [7]): 3 h; time at which switch peptide signal disappeared completely (near-complete conversion) (trypsin [4]; [7]): 24 h

**Q.** With “KSYIGR, where the SYIG unit indicates a Ser residue esterified with the Ac-YIG peptide sequence (Ac = acetyl)” as the molecule, how does the cleaved bond (trypsin [6]) read?
**A.** Its cleaved bond is “Lys-Ser, 1 h”.

B1: trypsin: enzyme that cleaves peptide bonds on the C-terminal side of positively charged residues (protein, UniProt P00760 24-246, looked up)
Serine protease 1: IVGGYTCGANTVPYQVSLNSGYHFCGGSLINSQWVVSAAHCYKSGIQVRLGEDNINVVEGNEQFISASKSIVHPSYNSNTLNNDIMLIKLKSAASLNSRVASISLPTSCASAGTQCLISGWGNTKSSGTSYPDVLKCLKAPILSDSSCKSAYPGQITSNMFCAGYLEGGKDSCQGDSGGPVVCSGKLQGIVSWGSGCAQKNKPGVYTKVCNYVSWIKQTIASN
**Q.** Which “cytotoxicity in cell viability studies” value (HUVECs [5]) does the source give for B1 here?
**A.** Its value is “no cytotoxicity”.
